Laboratory results taken from patent US20260217701A1, “SELECTIVE BET INHIBITORS AND USES THEREOF” (Tay Therapeutics Limited, priority 2022, published 2026).

Tested on: imiquimod-induced psoriasis
Experiment: Imiquimod-induced psoriasis model
Assay type: in vivo, mice
Details: for Mean scores of the presence of peeling on the skin of animals at the area of induction of psoriasis / Mean scores of the presence of erythema on the skin of animals at the area of induction of psoriasis / Mean scores of the presence of induration on the skin of animals at the area of induction of psoriasis: mean ± SEM; for Mean PASI Scores in IMI-Psoriasis Model: mice
How it was run: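 Psoriasis-like dermatitis induced in mice by daily dorsal imiquimod cream (Days 1–14); dosing with Compound A (5% DMSO/40% PEG-400/55% saline vehicle) began Day 8. Read-outs: summed 0–4 scores for erythema, induration and peeling daily to Day 15, plus terminal spleen ratio, behaviour and serum cytokines.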

[1] = IMI + 10 mg/kg, D8 (before start of treatment)

COCCn1cc(-c2ccccc2)c(-c2cn(C)c(=O)c3[nH]c(-c4cnn(C(F)(F)F)c4)cc23)cc1=O [Compound B, 4-(1-(2-methoxyethyl)-2-oxo-5-phenyl-1,2-dihydropyridin-4-yl)-6-methyl-2-(1-(trifluoromethyl)-1H-pyrazol-4-yl)-1,6-dihydro-7H-pyrrolo[2,3-c]pyridin-7-one]
Mean scores of the presence of peeling on the skin of animals at the area of induction of psoriasis (IMI + 3 mg/kg, D15): 1.3 ± 0.3 | Mean scores of the presence of erythema on the skin of animals at the area of induction of psoriasis [1]: 2.1 ± 0.1 | Mean scores of the presence of induration on the skin of animals at the area of induction of psoriasis [1]: 2.8 ± 0.2 | Mean scores of the presence of peeling on the skin of animals at the area of induction of psoriasis [1]: 2.4 ± 0.3 | Mean scores of the presence of erythema on the skin of animals at the area of induction of psoriasis (IMI + 10 mg/kg, D9): 1.5 ± 0.2 | Mean scores of the presence of induration on the skin of animals at the area of induction of psoriasis (IMI + 10 mg/kg, D9): 2.0 ± 0.2 | Mean scores of the presence of peeling on the skin of animals at the area of induction of psoriasis (IMI + 10 mg/kg, D9): 2.1 ± 0.2 | Mean scores of the presence of erythema on the skin of animals at the area of induction of psoriasis (IMI + 10 mg/kg, D10): 1.8 ± 0.2 | Mean scores of the presence of induration on the skin of animals at the area of induction of psoriasis (IMI + 10 mg/kg, D10): 2.1 ± 0.2 | Mean scores of the presence of peeling on the skin of animals at the area of induction of psoriasis (IMI + 10 mg/kg, D10): 2.0 ± 0.3 | Mean scores of the presence of erythema on the skin of animals at the area of induction of psoriasis (IMI + 10 mg/kg, D11): 1.5 ± 0.2 | Mean scores of the presence of induration on the skin of animals at the area of induction of psoriasis (IMI + 10 mg/kg, D11): 1.5 ± 0.2 | Mean scores of the presence of peeling on the skin of animals at the area of induction of psoriasis (IMI + 10 mg/kg, D11): 1.9 ± 0.1 | Mean scores of the presence of erythema on the skin of animals at the area of induction of psoriasis (IMI + 10 mg/kg, D12): 0.9 ± 0.3 | Mean scores of the presence of induration on the skin of animals at the area of induction of psoriasis (IMI + 10 mg/kg, D12): 1.1 ± 0.1 | Mean scores of the presence of peeling on the skin of animals at the area of induction of psoriasis (IMI + 10 mg/kg, D12): 1.0 ± 0.2 | Mean scores of the presence of erythema on the skin of animals at the area of induction of psoriasis (IMI + 10 mg/kg, D13): 0.6 ± 0.3 | Mean scores of the presence of induration on the skin of animals at the area of induction of psoriasis (IMI + 10 mg/kg, D13): 1.0 ± 0.0 | Mean scores of the presence of peeling on the skin of animals at the area of induction of psoriasis (IMI + 10 mg/kg, D13): 0.4 ± 0.2 | Mean scores of the presence of erythema on the skin of animals at the area of induction of psoriasis (IMI + 10 mg/kg, D14): 0.1 ± 0.1 | Mean scores of the presence of induration on the skin of animals at the area of induction of psoriasis (IMI + 10 mg/kg, D14): 0.6 ± 0.2 | Mean scores of the presence of peeling on the skin of animals at the area of induction of psoriasis (IMI + 10 mg/kg, D14): 0.5 ± 0.2 | Mean scores of the presence of erythema on the skin of animals at the area of induction of psoriasis (IMI + 10 mg/kg, D15): 0.1 ± 0.1 | Mean scores of the presence of induration on the skin of animals at the area of induction of psoriasis (IMI + 10 mg/kg, D15): 0.4 ± 0.2 | Mean scores of the presence of peeling on the skin of animals at the area of induction of psoriasis (IMI + 10 mg/kg, D15): 0.4 ± 0.2 | Mean PASI Scores in IMI-Psoriasis Model (IMI + 1 mg/kg, D8 (before start of treatment)): 7.0 ± 0.3 | Mean PASI Scores in IMI-Psoriasis Model (IMI + 1 mg/kg, D9): 6.8 ± 0.6 | Mean PASI Scores in IMI-Psoriasis Model (IMI + 1 mg/kg, D10): 6.0 ± 0.3 | Mean PASI Scores in IMI-Psoriasis Model (IMI + 1 mg/kg, D11): 6.5 ± 0.5 | Mean PASI Scores in IMI-Psoriasis Model (IMI + 1 mg/kg, D12): 5.6 ± 0.3 | Mean PASI Scores in IMI-Psoriasis Model (IMI + 1 mg/kg, D13): 5.6 ± 0.5 | Mean PASI Scores in IMI-Psoriasis Model (IMI + 1 mg/kg, D14): 5.6 ± 0.4 | Mean PASI Scores in IMI-Psoriasis Model (IMI + 1 mg/kg, D15): 5.1 ± 0.4 | Mean PASI Scores in IMI-Psoriasis Model (IMI + 3 mg/kg, D8 (before start of treatment)): 7.4 ± 0.3 | Mean PASI Scores in IMI-Psoriasis Model (IMI + 3 mg/kg, D9): 6.0 ± 0.4 | Mean PASI Scores in IMI-Psoriasis Model (IMI + 3 mg/kg, D10): 5.8 ± 0.4 | Mean PASI Scores in IMI-Psoriasis Model (IMI + 3 mg/kg, D11): 5.4 ± 0.3 | Mean PASI Scores in IMI-Psoriasis Model (IMI + 3 mg/kg, D12): 5.4 ± 0.3 | Mean PASI Scores in IMI-Psoriasis Model (IMI + 3 mg/kg, D13): 5.0 ± 0.4 | Mean PASI Scores in IMI-Psoriasis Model (IMI + 3 mg/kg, D14): 4.6 ± 0.4 | Mean PASI Scores in IMI-Psoriasis Model (IMI + 3 mg/kg, D15): 3.5 ± 0.5 | Mean PASI Scores in IMI-Psoriasis Model [1]: 7.3 ± 0.4 | Mean PASI Scores in IMI-Psoriasis Model (IMI + 10 mg/kg, D9): 5.6 ± 0.4 | Mean PASI Scores in IMI-Psoriasis Model (IMI + 10 mg/kg, D10): 5.9 ± 0.5 | Mean PASI Scores in IMI-Psoriasis Model (IMI + 10 mg/kg, D11): 4.9 ± 0.3 | Mean PASI Scores in IMI-Psoriasis Model (IMI + 10 mg/kg, D12): 3.1 ± 0.5 | Mean PASI Scores in IMI-Psoriasis Model (IMI + 10 mg/kg, D13): 2.0 ± 0.4 | Mean PASI Scores in IMI-Psoriasis Model (IMI + 10 mg/kg, D14): 1.3 ± 0.3 | Mean PASI Scores in IMI-Psoriasis Model (IMI + 10 mg/kg, D15): 0.9 ± 0.4 | erythema, induration and peeling of the skin at the area of induction (mouse, in vivo): significantly reduced | use of enrichment (nesting) (relative to vehicle-treated psoriasis animals): similarly restored use of nesting
